# Measured values: patent publication US5244897A, “Glycyl-p-amino-pyridine for the treatment of senile dementia states” (priority 1989, dated 1993)
# How the values were obtained:
# [1] = acute toxicity after oral administration (Litchfield and Wilcoxon); type: in vivo; conditions: Swiss mice; for LD50: mouse, in vivo
# [2] = acute convulsant activity after oral administration (Litchfield and Wilcoxon); type: in vivo; conditions: Swiss male mice; for TD50: mouse, in vivo, read-out: CD50 (Convulsant Doses 50)
# [3] = tested on: retention of passive avoidance response; assay: learning behavior in normal mice (passive avoidance response); type: in vivo, male mice; conditions: n=20
# Method: Male mice (body weight ca 20 grams) were used. The test apparatus was a box with a dark compartment and an illuminated one.
# The animal was placed in the illuminated compartment, foot-shock was given immediately after the mouse moved in the dark compartement (acquisition trial).
# MR-3066 was intraperitoneally administered immediately after the acquisition trial.
# The test trial was carried out 24 h following the acquisition trial and the latency time to enter the dark compartment was recorded.
# Anti-amnesic activity was calculated according to the following formula:
# of control = (the mean latency time of test compound treated mice/the mea
# latency time of vehicle treated mice) 100.
# [4] = tested on: electroconvulsive shock (ECS) induced amnesia; assay: electroconvulsive shock (ECS) induced amnesia (passive avoidance); type: in vivo, male mice; conditions: n=20; for minimal effective dose: Mus musculus, ip, read-out: Active dose (significantly prolonged the latency)
# Method: Male mice (body weight 23-26 grams) were used.
# Test apparatus and passive avoidance training (acquisition trial) were as described in the previous section.
# Immediately after acquisition trial, amnesia was induced by electroconsulsive shock (ECS).
# Test compounds were administered intraperitoneally soon afterwards the exposure to ECS.
# The test trial was performed 24 h after the acquisition trial: the animals were put in the illuminated compartment an the latency time to enter the unlighted compartment was recorded
# (§1) Anti-amnesic activity was calculated according to the following formula.
# (§2) % of control = (the mean latency time of test compound treated mice/the
# (§3) mean latency time of vehicle treated mice) × 100.
# [5] = toxicity after repeated oral administration, 30 days, preliminary study; type: in vivo, male and female Sprague Dawley rat; conditions: 6 mg/kg oral, 30 consecutive days, rat
# Method: The toxicity of MR-3066 after repeated administration was evaluated in male and female Sprague Dawley rat after oral administration of the drug (6 mg/kg) for 30 consecutive days.
# [6] = tested on: scopolamine-induced amnesia; assay: scopolamine-induced amnesia (passive avoidance); type: in vivo, mice; conditions: for minimal effective dose: Mus musculus, ip, read-out: Active dose (significantly prolonged the latency)
# Method: Test apparatus, mice and passive avoidance training (acquisition trial) were as described in the previous sections (4.2-4.3). The compounds were intraperitoneally administered 30 min. before the acquisition trial.
# Amnesia was induced by scolopolamine (1 mg/kg s.c.) given 20 min. prior to the acquisition trial; the test trial was performed after 24 hours.
# The animals were put in the illuminated compartment and latency time to enter the dark compartment was recorded.
# as §1, §2, §3
# [7] = properties stated in the general summary; type: in vivo; conditions: general statement
# [8] = tested on: acetylcholine release from the rat's cerebral cortex; assay: acetylcholine release in vivo, acute treatment; conditions: 5.6 mg/kg i.p., anesthetized rats, n=5
# Method: Effect on acetylcholine release from the rat's cerebral cortex "in vivo"
# In this study the Acetylcholine release from the cerebral cortex was investigated in anesthetized rats (n=5) at different times before and after i.p. administration of MR-3066 at a dose of 5.6 mg/kg.
# [9] = mean blood pressure (reported with the transcallosal evoked potential study); type: in vivo, rats; conditions: for mean blood pressure: MR-3066 2 mg/kg i.v., physostigmine 0.1 mg/kg i.v.
# Method: (§4) Electric stimulus was given to the callosum of urethane anesthetized rats, and transcallosal evoked potential from the opposite side cerebral cortex was measured.
# (§5) The effects of the compounds on the transcallosal evoked potential were studied in rats.
# [10] = tested on: spontaneous EEG (motor cortex, hippocampus, nucleus amygdalae); assay: spontaneous EEG; type: in vivo; conditions: 0.1 mg/kg i.v., rabbits
# Excerpt: Electrodes were chronically implanted in the motor cortex, the hippocampus and the nucleus amygdalae of rabbits (n=4).
# The effects of compounds on spontaneous EEG were studied in the animals.
# [11] = tested on: transcallosal evoked potential from the opposite side cerebral cortex; assay: transcallosal evoked potential; type: in vivo, urethane anesthetized rats; conditions: 0.1 mg/kg i.v., rats
# Method: as §4, §5
# [12] = ECS amnesia, 1 mg/kg i.p., MR-3066 ** P < 0.01 vs control
# [13] = ECS amnesia, 2,5 mg/kg i.p., MR-3066 * P < 0.05, THA ** P < 0.01 vs control
smiles,measurement,setting,value
"Nc1ccncc1 [4-aminopyridine, reference compound]",LD50,[1],12 mg/kg
same,TD50,[2],5 mg/kg
"NCC(=O)Nc1ccncc1 [MR-3066, glycyl-p-amino-pyridine monoacetate]",Mean latency (% of control),[3]; 1 mg/kg i.p.,120.5 % of control
same,Mean latency (% of control),[3]; 2.5 mg/kg i.p.,118.8 % of control
same,Mean latency (% of control),"[3]; 5 mg/kg i.p., ** P < 0.01 vs control",136.1 % of control
same,minimal effective dose,"[3]; Mus musculus, ip, passive avoidance, normal mice, read-out: Active dose (significantly prolonged the latency)",5 mg/kg
same,Anti-amnesic activity (% of control),"[4]; ECS amnesia, 0,1 mg/kg i.p.","148,2 % of control"
same,Anti-amnesic activity (% of control),"[4]; ECS amnesia, 0,5 mg/kg i.p.","121,6 % of control"
same,Anti-amnesic activity (% of control),"[4]; ECS amnesia, 0,25 mg/kg i.p.","147,8 % of control"
same,Anti-amnesic activity (% of control),[4]; [12],"189,6 % of control"
same,Anti-amnesic activity (% of control),"[4]; ECS amnesia, 5 mg/kg i.p.",148 % of control
same,Anti-amnesic activity (% of control),[4]; [13],"165,5 % of control"
same,toxic phenomena after repeated administration,[5],"no toxic phenomenon except for a slight decrease in body weight, increase in the female accompanied by a reduction in food consumption"
same,minimal effective dose,[6]; scopolamine amnesia,1 mg/kg
same,Anti-amnesic activity (% of control),"[6]; scopolamine amnesia, 0,5 mg/kg i.p.","157,6 % of control"
same,Anti-amnesic activity (% of control),"[6]; scopolamine amnesia, 1 mg/kg i.p., ** P < 0.01 vs controls","188,1 % of control"
same,Anti-amnesic activity (% of control),"[6]; scopolamine amnesia, 5 mg/kg i.p.","159,5 % of control"
same,Anti-amnesic activity (% of control),"[6]; scopolamine amnesia, 2,5 mg/kg i.p.","145,2 % of control"
same,Parkinson-like effect,[7],without nevertheless showing Parkinson-like effect
same,acute toxicity versus 4-aminopyridine,[1],toxicity lower than 4-aminopiridine
same,LD50,[1],29 mg/kg
same,time of peak of Ach release,[8],45 '
same,mean blood pressure,[9],raised the mean blood pressure
same,convulsant activity versus 4-aminopyridine,[2],less convulsant than 4-aminopyridine
same,TD50,[2],19 mg/kg
CNC(=O)Oc1ccc2c(c1)[C@]1(C)CCN(C)[C@@H]1N2C [Physostigmine],Anti-amnesic activity (% of control),"[4]; ECS amnesia, 0,05 mg/kg i.p., * P < 0.05","165,6 % of control"
same,Anti-amnesic activity (% of control),"[4]; ECS amnesia, 0,025 mg/kg i.p., * P < 0.05","172,9 % of control"
same,Anti-amnesic activity (% of control),"[4]; ECS amnesia, physostigmine 0,1 mg/kg i.p.",148 % of control
same,minimal effective dose,[4]; ECS amnesia,0.025 to 0.05 mg/kg
same,onset of the EEG effects,[10],immediately after the administration
same,minimal effective dose,[6]; scopolamine amnesia,0.1 mg/kg
same,Active dose (significantly prolonged the latency),[6]; scopolamine amnesia,"0,1 mg/kg i.p."
same,Anti-amnesic activity (% of control),"[6]; scopolamine amnesia, 0,1 mg/kg i.p., * P < 0.05","155,5 % of control"
same,Anti-amnesic activity (% of control),"[6]; scopolamine amnesia, 0,05 mg/kg i.p.","134,5 % of control"
same,Anti-amnesic activity (% of control),"[6]; scopolamine amnesia, 0,025 mg/kg i.p.","119,5 % of control"
same,amplitude of negative wave of transcallosal evoked potential,[11],increased the amplitude of negative wave
same,mean blood pressure,[9],raised the mean blood pressure
same,mean blood pressure effect versus MR-3066,[9]; physostigmine 0.1 mg/kg i.v. vs MR-3066 2 mg/kg i.v.,much more marked than MR-3066
Nc1c2c(nc3ccccc13)CCCC2 [THA],Anti-amnesic activity (% of control),"[4]; ECS amnesia, 0,5 mg/kg i.p.","72,2 % of control"
same,Anti-amnesic activity (% of control),[4]; [12],"114,4 % of control"
same,Anti-amnesic activity (% of control),[4]; [13],"184,5 % of control"
same,Active dose (significantly prolonged the latency),[4]; ECS amnesia,2.5 mg/kg i.p.
same,minimal effective dose,[4]; ECS amnesia,2.5 mg/kg
